Type in all cases: physicochemical
Data set [1] is described as follows: Relaxivities of Gd^III chelates, inversion recovery pulse sequence on relaxometer (0.5 T) (Chart 15). The following applies: 40.0° C., 1.0 mM in aq. MOPS/NaOH buffer, pH 7.0.
The nature of data set [2]: Dissociation of chelates in aq. 0.1M HCl at RT (acid decomplexation kinetic inertness) (Chart 20).
Data set [3] is described as follows: Dissociation of chelates in aq. 1.0M HCl at 80° C. (acid decomplexation kinetic inertness) (Chart 18).
The nature of data set [4]: Dissociation of chelates in aq. 6.0M HCl at 80° C. (acid decomplexation kinetic inertness) (Chart 17).
Data set [5] in a line: Dissociation of chelates in aq. 0.1M HCl at 80° C. (acid decomplexation kinetic inertness) (Chart 19).
The nature of data set [6]: Formation of 1,5-cz-[Ln(Lig)] from 1,5-cz-Lig (metal dependent direct complexation), RT and 80° C. (Chart 9). Particulars: pH 7.0; for conversion to 1,5-cz-[Ln(Lig)] from 1,5-cz-Lig, Bi^III: ~4% DMSO.
The nature of data set [7]: Formation of 1,5-cz-[Ln(Lig)] from 1,5-cz-Lig (metal dependent direct complexation) (Chart 8). Particulars: pH 7.0.
A short description of data set [8]: Formation of 1,5-cz-[Ln(Lig)] from Lig and Ln^III ions (metal dependent click-zip), MES/NaOH buffer pH 5.2, analytical HPLC (Chart 3).

The compound `O=C1C[N@@]2CC[N@]3CC[N@@](CC[N@](CC2)Cc2cccc(n2)-c2cnnn2Cc2cc(-c4ccccc4)cc(n2)C3)CC(=O)[O][Gd][O]1` [TD527] registered a relaxivity in data set [1] of 1.48 mM⁻¹ s⁻¹. In addition, the “fraction of intact chelate” value in data set [2] (1 month) is given as 100%; in data set [2] (1 week) it was 100%; in data set [2] (1 hour) it was 100%; in data set [2] (1 day), 100%; in data set [3] (1 month), 0%; in data set [3] (1 week), 1%. Moreover, the “fraction of intact chelate” value is recorded as 98% in data set [3] (1 hour); 58% in data set [3] (1 day); 0% in data set [4] (1 month); 0% in data set [4] (1 week); 2% in data set [4] (1 hour); 0% in data set [4] (1 day). The “fraction of intact chelate” value in data set [5] (1 month) is recorded as 82%; in data set [5] (1 week), 95%; in data set [5] (1 hour), 100%; in data set [5] (1 day), 99%.
Regarding `O=C(O)CN1CC[N@]2CCN(CC(=O)O)CC[N@@](CC1)Cc1cccc(n1)-c1cnnn1Cc1cc(-c3ccccc3)cc(n1)C2` [TD650], in data set [6] (A: 1 min at RT), the “conversion to 1,5-cz-[Ln(Lig)] from 1,5-cz-Lig, Cu^II” value was found to be 43% and the “conversion to 1,5-cz-[Ln(Lig)] from 1,5-cz-Lig, Pb^II” value is reported as 98%. In addition, in data set [6] (B: 1 hour at RT), the “conversion to 1,5-cz-[Ln(Lig)] from 1,5-cz-Lig, Ca^II” value was 0%; the “conversion to 1,5-cz-[Ln(Lig)] from 1,5-cz-Lig, Cd^II” value is 58%; the “conversion to 1,5-cz-[Ln(Lig)] from 1,5-cz-Lig, Cu^II” value is 47%; the “conversion to 1,5-cz-[Ln(Lig)] from 1,5-cz-Lig, Ni^II” value turned out to be 0%. For the same compound, in data set [6] (B: 1 hour at RT), the “conversion to 1,5-cz-[Ln(Lig)] from 1,5-cz-Lig, Pb^II” value is reported as 99%; the “conversion to 1,5-cz-[Ln(Lig)] from 1,5-cz-Lig, Zn^II” value is listed as 59%; the “conversion to 1,5-cz-[Ln(Lig)] from 1,5-cz-Lig, Bi^III” value came to 2%. Also, in data set [6] (C: 1 hour at 80° C.), the “conversion to 1,5-cz-[Ln(Lig)] from 1,5-cz-Lig, Ca^II” value was found to be 23%; the “conversion to 1,5-cz-[Ln(Lig)] from 1,5-cz-Lig, Cd^II” value was found to be 98%; the “conversion to 1,5-cz-[Ln(Lig)] from 1,5-cz-Lig, Cu^II” value turned out to be 49%; the “conversion to 1,5-cz-[Ln(Lig)] from 1,5-cz-Lig, Ni^II” value is 9%. In data set [6] (C: 1 hour at 80° C.), the “conversion to 1,5-cz-[Ln(Lig)] from 1,5-cz-Lig, Pb^II” value was found to be 98%; the “conversion to 1,5-cz-[Ln(Lig)] from 1,5-cz-Lig, Zn^II” value came to 91%; the “conversion to 1,5-cz-[Ln(Lig)] from 1,5-cz-Lig, Bi^III” value is 96%. Moreover, in data set [6] (D: 1 week at 80° C.), the “conversion to 1,5-cz-[Ln(Lig)] from 1,5-cz-Lig, Ba^II” value is 0%; the “conversion to 1,5-cz-[Ln(Lig)] from 1,5-cz-Lig, Ca^II” value turned out to be 96%; the “conversion to 1,5-cz-[Ln(Lig)] from 1,5-cz-Lig, Cd^II” value is 99%; the “conversion to 1,5-cz-[Ln(Lig)] from 1,5-cz-Lig, Cu^II” value was 78%. Besides, in data set [6] (D: 1 week at 80° C.), the “conversion to 1,5-cz-[Ln(Lig)] from 1,5-cz-Lig, Ga^II” value stood at 0%; the “conversion to 1,5-cz-[Ln(Lig)] from 1,5-cz-Lig, In^III” value is recorded as 0%; the “conversion to 1,5-cz-[Ln(Lig)] from 1,5-cz-Lig, Ni^II” value came to 11%; the “conversion to 1,5-cz-[Ln(Lig)] from 1,5-cz-Lig, Pb^II” value is 98%. Besides, in data set [6] (D: 1 week at 80° C.), the “conversion to 1,5-cz-[Ln(Lig)] from 1,5-cz-Lig, Sc^III” value was found to be 0%; the “conversion to 1,5-cz-[Ln(Lig)] from 1,5-cz-Lig, Sr^II” value came out at 0%; the “conversion to 1,5-cz-[Ln(Lig)] from 1,5-cz-Lig, Y^III” value is 0%; the “conversion to 1,5-cz-[Ln(Lig)] from 1,5-cz-Lig, Zn^II” value worked out at 99%. The “conversion to 1,5-cz-[Ln(Lig)] from 1,5-cz-Lig, Bi^III” value in data set [6] (D: 1 week at 80° C.) amounted to 90%. In data set [7] (A: 1 hour at 80° C.), the “conversion to 1,5-cz-[Ln(Lig)] from 1,5-cz-Lig, Ce^III” value is reported as 0%; the “conversion to 1,5-cz-[Ln(Lig)] from 1,5-cz-Lig, Dy^III” value was 0%; the “conversion to 1,5-cz-[Ln(Lig)] from 1,5-cz-Lig, Er^III” value amounted to 0%; the “conversion to 1,5-cz-[Ln(Lig)] from 1,5-cz-Lig, Eu^III” value is reported as 0%. Also, in data set [7] (A: 1 hour at 80° C.), the “conversion to 1,5-cz-[Ln(Lig)] from 1,5-cz-Lig, Gd^III” value turned out to be 0%; the “conversion to 1,5-cz-[Ln(Lig)] from 1,5-cz-Lig, Ho^III” value came to 0%; the “conversion to 1,5-cz-[Ln(Lig)] from 1,5-cz-Lig, La^III” value is given as 0%; the “conversion to 1,5-cz-[Ln(Lig)] from 1,5-cz-Lig, Lu^III” value is listed as 0%. In addition, in data set [7] (A: 1 hour at 80° C.), the “conversion to 1,5-cz-[Ln(Lig)] from 1,5-cz-Lig, Nd^III” value was determined as 0%; the “conversion to 1,5-cz-[Ln(Lig)] from 1,5-cz-Lig, Pr^III” value is listed as 0%; the “conversion to 1,5-cz-[Ln(Lig)] from 1,5-cz-Lig, Sm^III” value amounted to 0%; the “conversion to 1,5-cz-[Ln(Lig)] from 1,5-cz-Lig, Tb^III” value came out at 0%. Moreover, in data set [7] (A: 1 hour at 80° C.), the “conversion to 1,5-cz-[Ln(Lig)] from 1,5-cz-Lig, Tm^III” value is recorded as 0% and the “conversion to 1,5-cz-[Ln(Lig)] from 1,5-cz-Lig, Yb^III” value is 0%. Moreover, in data set [7] (B: 1 week at 80° C.), the “conversion to 1,5-cz-[Ln(Lig)] from 1,5-cz-Lig, Ce^III” value is recorded as 0%; the “conversion to 1,5-cz-[Ln(Lig)] from 1,5-cz-Lig, Dy^III” value was found to be 0%; the “conversion to 1,5-cz-[Ln(Lig)] from 1,5-cz-Lig, Er^III” value is given as 0%; the “conversion to 1,5-cz-[Ln(Lig)] from 1,5-cz-Lig, Eu^III” value came to 0%. Also, in data set [7] (B: 1 week at 80° C.), the “conversion to 1,5-cz-[Ln(Lig)] from 1,5-cz-Lig, Gd^III” value is 0%; the “conversion to 1,5-cz-[Ln(Lig)] from 1,5-cz-Lig, Ho^III” value came out at 0%; the “conversion to 1,5-cz-[Ln(Lig)] from 1,5-cz-Lig, La^III” value is given as 0%; the “conversion to 1,5-cz-[Ln(Lig)] from 1,5-cz-Lig, Lu^III” value was 0%. In data set [7] (B: 1 week at 80° C.), the “conversion to 1,5-cz-[Ln(Lig)] from 1,5-cz-Lig, Nd^III” value worked out at 0%; the “conversion to 1,5-cz-[Ln(Lig)] from 1,5-cz-Lig, Pr^III” value is 0%; the “conversion to 1,5-cz-[Ln(Lig)] from 1,5-cz-Lig, Sm^III” value amounted to 0%; the “conversion to 1,5-cz-[Ln(Lig)] from 1,5-cz-Lig, Tb^III” value was found to be 0%. Moreover, in data set [7] (B: 1 week at 80° C.), the “conversion to 1,5-cz-[Ln(Lig)] from 1,5-cz-Lig, Tm^III” value was 0% and the “conversion to 1,5-cz-[Ln(Lig)] from 1,5-cz-Lig, Yb^III” value is recorded as 0%. Also, in data set [7] (C: ~6 months at 80° C.), the “conversion to 1,5-cz-[Ln(Lig)] from 1,5-cz-Lig, Gd^III” value was 0% and the “conversion to 1,5-cz-[Ln(Lig)] from 1,5-cz-Lig, Lu^III” value is 0%.
As to `[N-]=[N+]=NCc1cc(-c2ccc(C(=O)O)cc2)cc(CN2CCN(CC(=O)O)CCN(Cc3cccc(C#CCN)n3)CCN(CC(=O)O)CC2)n1` [TD750], in data set [8] (after 1 hour at 80° C. (A)), the “conversion to 1,5-cz-[Ln(Lig)], Gd^III” value stood at 3% and the “conversion to 1,5-cz-[Ln(Lig)], Lu^III” value was found to be 19%. In data set [8] (after 18 hours at 80° C. (B)), the “conversion to 1,5-cz-[Ln(Lig)], Gd^III” value is given as 9% and the “conversion to 1,5-cz-[Ln(Lig)], Lu^III” value amounted to 71%.
As to `C#Cc1cccc(CN2CC[N@]3CCN(Cc4cc(-c5ccccc5)cc(CN=[N+]=[N-])n4)CC[N@@](CC2)CC(=O)[O][Gd][O]C(=O)C3)n1` [TD451], the relaxivity in data set [1] came out at 2.39 mM⁻¹ s⁻¹.

Source of the values: patent publication US20250147039A1, “Compounds for complexation of rare earth elements and/or s-, p-, d- block metals, their coordination compounds, peptide conjugates, method of their preparation and use thereof” (USTAV ORGANICKE CHEMIE A BIOCHEMIE AV CR V.V.I., priority 2021, published 2025).
